According to patent US20240002326A1, “COMPOUNDS AND USE THEREOF IN METHODS OF TREATMENT” (The University of Queensland, priority 2016, published 2024):

Assays:
full-length mouse SOX18 = full-length mouse SOX18 (Mus musculus (Mouse), UniProt P43680); experiment: FP DNA-binding competition assay, full-length SOX18; conditions: full-length mouse SOX18, Prox1-DNA probe, read-out: FP IC50 ± SD
Method: Full-length mouse SOX18. A N-terminally tagged mouse HIS-GST-SOX18 was recombinantly expressed in Sf9 cells, purified on GST resin (GE Healthcare Life Sciences, Sweden) and eluted in Tris buffer (50 mM Tris, 500 mM NaCl, 10 mM reduced glutathione, pH 8.0). cDNA clone of mouse Sox18 was PCR amplified and cloned into the pOPIN-GST vector, to generate N-terminally tagged HIS-GST-SOX18. A sequence verified construct was co-transfected with flashBACULTRA (Oxford Expression Technologies, Oxford, United Kingdom) baculovirus DNA onto Spodoptera frugiperda Sf9 cells to obtain recombinantly expressed HIS-GST-SOX18. High Five cells (BTI-TN-5B1-4) in Sf-900™ II serum-free medium were infected at cell density of 1.5×10^6 cells/mL with a multiplicity of infection (MOI) of 5 PFU/cell, and incubated at 21° C. for 144 h before harvest. The cell pellet from 100 mL of expression culture was resuspended in 30 mL of phosphate lysis buffer (50 mM sodium phosphate, 500 mM sodium chloride, 1% Triton X-100, 2 mM magnesium chloride, one tablet of cOmplete Protease Inhibitor Cocktail, pH 7.5) and sonicated on ice for 20 s. The cell lysate was centrifuged at 17,000×g for 40 min at 4° C. Supernatant was incubated with Benzonase Nuclease (Merck Millipore) for 1 h at room temperature for DNA degradation, before being mixed with 500 μL GST resin (GE Healthcare Life Sciences, Sweden) and incubated on a rotating wheel at room temperature for 1 h. The sample was centrifuged at 500×g for 1 min to remove unbound protein in the supernatant. The resin was further washed with 50 resin volumes (RV) wash buffer (50 mM sodium phosphate, 500 mM NaCl, pH 7.5), with unbound protein removed by centrifugation as above. Bound protein was eluted from the resin with 3×1 RV elution buffer (50 mM Tris, 500 mM NaCl, 10 mM reduced glutathione, pH 8.0), collecting the supernatant by centrifugation as above.
The DNA-binding competition assay was performed in black 384-well plates, with mouse full length SOX18, or SOX-HMG fragments. All experiments were performed using a fluorescently-labelled Prox1-DNA element. Controls consisted of free labelled DNA (low FP milli-Polarization index, mP), labelled DNA in presence of protein (negative control, high mP), and labelled DNA and protein in presence of competing excess of unlabelled DNA (positive control, low mP)
The DNA-binding competition assay was performed in 25 uL, in black 384-well plates, using either 30 mM HEPES (N-2-Hydroxyethylpiperazine-N′-2-Ethanesulfonic Acid) (pH 7.5, with 100 mM KCl, 40 mM NaCl, 10 mM NH4OAc, […], 2 mM MgCl2, 0.5 mM EDTA, 0.01% NP-40) for mouse full length SOX18, or Tris-NaCl (10 mM Tris pH 8.0 and 100 mM NaCl) for SOX-HMG fragments. All experiments were performed using a 40 bp double-stranded Prox1-DNA element with 5′ fluorescein amidite (FAM) label (Sigma Proligo or InVitrogen). Optimum binding levels were obtained at 200 nM of mouse full length SOX18 and 60 nM of SOX-HMG fragment, in presence of 5 nM labelled DNA. Controls consisted of free labelled DNA (low FP milli-Polarization index, mP), labelled DNA in presence of protein (negative control, high mP), and labelled DNA and protein in presence of 400 time competing excess of unlabelled DNA (positive control, low mP). Depending on compound, final DMSO concentrations ranged from 2 to 3.33% v/v. After mixing protein, DNA probe and compound, plates were sealed and briskly agitated in the dark for 5 minutes at room temperature, 10 minutes at 37° C., and 30 minutes at room temperature, before reading fluorescence polarization on a Tecan M1000Pro (λexc=485 nm, λem=525 nm). All experiments were performed in triplicates.

[1] = Cytotoxicity assay (Alamar blue), COS-7; format: cell-based, Monkey; conditions: chlorocebus aethiops, COS-7 cells; COS7, 24 h; read-out: In vitro cytotoxicity CC50 ± SD COS7
Method: Cell toxicity was determined using Alamar blue, as previously described (McMillian et al., 2002). COS-7 cells were seeded as 7000 cells per well in black wall clear bottom 96-well plates in DMEM medium (Life Technologies Australia) with 10% FBS. HepG2 and HEK293 cell lines, from ATCC, were seeded as 5000 cells per well in black wall clear bottom 384-well cell culture plates in DMEM with 1% FBS. Cells were cultured for 24 h at 37° C., 5% CO2. A serial dilution of compounds was added, with a final DMSO concentration adjusted to 0.5% v/v. Cells were incubated for another 24 h. 1 Triton X-100 was used as negative control, and 0.5% DMSO as positive control. 5 μM Alamar blue was added to each well and fluorescence was measured (λexc=560 nm, λem=590 nm) after 2 h incubation at 37° C. Data were analysed using Prism software.

SOX18 = SOX18 (Mus musculus (Mouse), UniProt P43680); experiment: Cell-based luciferase SOX18-dependent transactivation (Vcam1 promoter) in COS-7; conditions: COS7, 24 h, read-out: In vitro efficacy in cell IC50 ± SD COS7 (Luc)
Method: Monkey kidney fibroblast-like cells (COS-7) were cultured at 37° C., 5% CO2 in DMEM (Life technologies, 11995) with FBS, sodium pyruvate, L-glutamine, penicillin, streptomycin, non-essential amino acids and HEPES. Cells were grown in 96-well plates to 80% confluency, and transfected with mouse plasmids pGL2 Vcam 1 promoter construct (VC1889) and pSG5 Sox18, using X-tremeGENE 9 DNA transfection reagent (Roche, 06365787001) (Hosking et al., 2004, Duong et al., 2014). After 4-6 h transfection, cells were incubated with compounds in 0.5% FBS medium for another 24 h, before lysis and luciferase assay (Perkin Elmer, 6016711).

[2] = test system: 4T1.2 mammary carcinoma cells; experiment: 4T1.2 mammary carcinoma mouse model of breast cancer metastasis; format: in vivo, BALB/c mice; conditions: 25 mg/kg/day oral, day 3 to day 12

full-length mouse SOX18, sequence (P43680 whole entry): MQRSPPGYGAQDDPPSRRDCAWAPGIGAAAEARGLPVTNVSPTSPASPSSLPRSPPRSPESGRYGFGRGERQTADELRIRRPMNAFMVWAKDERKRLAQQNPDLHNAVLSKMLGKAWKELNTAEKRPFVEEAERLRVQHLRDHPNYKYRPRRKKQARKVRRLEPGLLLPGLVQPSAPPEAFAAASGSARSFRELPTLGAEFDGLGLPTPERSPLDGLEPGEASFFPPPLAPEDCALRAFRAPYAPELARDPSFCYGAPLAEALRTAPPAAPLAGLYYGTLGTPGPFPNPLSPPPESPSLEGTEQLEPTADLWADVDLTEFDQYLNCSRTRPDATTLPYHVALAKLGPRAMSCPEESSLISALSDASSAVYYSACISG
SOX18, sequence (P43680 whole entry): as above

IC50 (full-length mouse SOX18) | IC50 (SOX18) | SMILES | CC50 at 24 h [1] | median latency (survival) [2]
163 ± 17.7 µM | – | Cc1ccc(Cl)c(Nc2ccccc2C(=O)O)c1Cl [Meclofenamic acid, reference compound] | 16 ± 0.3 µM | –
375 ± 84 µM | 50.5 ± 7.6 µM | O=C(O)c1cccnc1Nc1cccc(C(F)(F)F)c1 [Nifumic acid, niflumic acid, reference compound] | > 200 µM | –
– | – | CC(=O)Oc1ccccc1C(=O)O [Aspirin] | – | 34 days
